The source made the active and inactive calls.
How the values were obtained:
BMDM [1] = assay: Inhibition of heat-killed Staphylococcus aureus-induced B7h mRNA expression in mouse BMDM by Northern blot analysis; type: functional
MEF [2] = assay: Inhibition of TNF-induced IkappaBbeta expression in mouse MEF up to 120 mins by Western blot analysis; type: functional, cell-based
BMDM [3] = assay: Inhibition of LPS-induced IkappaBalpha mRNA expression in mouse BMDM up to 3 hrs by Northern blot analysis; type: functional, cell-based
MEF [4] = assay: Effect on TNF-induced RANTES mRNA expression in MEF by Northern blot analysis; type: functional, cell-based; settings: Mus musculus
[5] = biological target: Transcription factor p65 (Homo sapiens) (UniProt Q04206); assay: Inhibition of TNF-induced RelA phosphorylation in human bronchial epithelial cells up to 120 mins by Western blot analysis; type: cell-based; settings: Epithelial cell
Macrophage = assay: Inhibition of LPS-induced c-jun mRNA expression in mouse alveolar macrophages after 90 mins by Northern blot analysis; type: functional, cell-based
BMDM [6] = assay: Inhibition of LPS-induced IkBbeta degradation in mouse BMDM treated 2 hrs after LPS challenge measured up to 120 mins by Western blot analysis; type: functional, cell-based

Measured: Activity

Sequence of Transcription factor p65 (Homo sapiens) (Q04206 whole entry): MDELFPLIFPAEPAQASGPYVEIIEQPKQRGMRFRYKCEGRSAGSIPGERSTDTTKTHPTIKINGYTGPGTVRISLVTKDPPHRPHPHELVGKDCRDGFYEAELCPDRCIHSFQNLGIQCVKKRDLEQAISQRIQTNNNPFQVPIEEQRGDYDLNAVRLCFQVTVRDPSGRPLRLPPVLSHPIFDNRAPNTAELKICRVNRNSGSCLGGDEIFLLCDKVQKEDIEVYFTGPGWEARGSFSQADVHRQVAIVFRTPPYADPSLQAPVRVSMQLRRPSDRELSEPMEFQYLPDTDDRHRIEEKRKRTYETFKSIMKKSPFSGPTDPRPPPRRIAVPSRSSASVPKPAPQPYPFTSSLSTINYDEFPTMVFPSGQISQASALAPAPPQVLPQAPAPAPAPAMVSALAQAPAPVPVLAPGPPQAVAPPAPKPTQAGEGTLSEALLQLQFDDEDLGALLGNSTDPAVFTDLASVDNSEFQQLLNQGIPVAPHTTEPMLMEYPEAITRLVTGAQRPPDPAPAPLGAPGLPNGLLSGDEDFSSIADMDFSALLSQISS

CCCCCCCCCC(=O)CC(=O)N[C@H]1CCOC1=O
active: BMDM [1] | MEF [2] | BMDM [3] Dose-dependent effect | MEF [4] | [5] | Macrophage Dose-dependent effect | BMDM [6]
